Experimental data reported in US20230180804A1, “FLAVOR COMPOSITION, AND FOOD AND BEVERAGE” (TAKASAGO INTERNATIONAL CORPORATION, priority 2020, published 2023).

What was measured:
olfactory receptor OR9Q2 = target: T1, olfactory receptor OR9Q2 (Homo sapiens, UniProt Q8NGE9); experiment: OR9Q2 response inhibitory effect for p-cresol, luciferase reporter gene assay; type: cell-based; details: p-cresol 100 µM mixed with various concentrations of compound; cells expressing OR9Q2; ratio of Fold Increase value (FIGS. 1 to 11)
T1 construct: 20 N-terminal amino acid residues of bovine rhodopsin (Rho tag); expressed in transfected cells; host or cells: HEK293T
T1 sequence (Q8NGE9 1-314): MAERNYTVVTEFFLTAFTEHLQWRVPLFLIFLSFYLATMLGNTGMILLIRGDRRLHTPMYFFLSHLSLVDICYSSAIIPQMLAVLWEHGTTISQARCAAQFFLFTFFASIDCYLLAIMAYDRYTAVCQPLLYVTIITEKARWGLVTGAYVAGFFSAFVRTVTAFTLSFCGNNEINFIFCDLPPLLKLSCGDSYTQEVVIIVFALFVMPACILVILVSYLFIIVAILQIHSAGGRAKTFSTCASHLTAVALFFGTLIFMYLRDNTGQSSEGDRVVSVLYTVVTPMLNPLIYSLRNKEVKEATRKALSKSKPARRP
Method: The human olfactory receptor gene was obtained by cloning from Human Genomic DNA: Female (Promega) by PCR method based on the sequence information registered in GenBank. The 20 N-terminal amino acid residues of bovine rhodopsin were incorporated into the pME18S vector, and the obtained human olfactory receptor gene was incorporated downstream thereof to obtain a human olfactory receptor gene expression vector.
In 10 µL of Opti-MEM I (gibco), 0.05 µg of human olfactory receptor gene expression vector, 0.01 µg of RTP1S vector, 0.01 µg firefly luciferase vector pGL4.29 (Promega) containing cAMP response element promoter, and 0.005 µg of Renilla luciferase vector pGL4.74 (Promega) containing thymidine kinase promoter were dissolved to prepare a gene solution (for one well). HEK293T cells were seeded at 100 µL each in a 96-well plate (Biocoat, Coming) at the number of cells reaching confluence after 24 hours, and a gene solution was added to each well by the lipofection method according to the usage of Lipofectamine 3000 to introduce genes into the cells, and the cells were cultured at 37° C. in a 5% carbon dioxide atmosphere for 24 hours.
After removing the culture medium, the resultant was prepared with CD293 (gibco) medium ([…] added) so as to have a concentration for measuring the aroma substance to be tested, 50 µL of which was added each and stimulated for 3 hours, and then luciferase activity was measured according to the method of using the Dual-Luciferase Reporter Assay System (Promega). The response intensity of the olfactory receptor polypeptide was expressed as a Fold Increase value obtained by dividing the luciferase activity produced by stimulating the aroma substance by the luciferase activity produced in the test system containing no aroma substance.
p-Cresol at 100 µM was mixed with various concentrations of 1-oxacycloheptadecan-7-en-2-one, 1-oxacycloheptadecan-8-en-2-one, isoambrettolide, pentalide, muscone, civetone, 8-2-decenolactone, cinnamic aldehyde, […], sclareolide, and ethyl maltol, and receptor responses were measured in cells expressing OR9Q2. The ratio of the Fold Increase value in the test in which each compound was mixed was calculated, where the Fold Increase value in the test in none of these compounds was mixed was set to 100. FIGS. 1 to 11 present the results.

[1] = Sensory evaluation of p-cresol odor masking in p-cresol-containing citrus-flavored beverage; details: for p-Cresol Odor Intensity: beverage with 50 ppb p-cresol, average score of 7 panelists, scale 0-4; for concentration at which the compound masks the p-cresol odor and does not affect the citrus flavor, lower limit / concentration at which the compound masks the p-cresol odor and does not affect the citrus flavor, upper limit: citrus-flavored beverage with 50 ppb p-cresol
Method: To 2 g of lemon flavor obtained by making lemon oil into an essence, purified water was added to adjust the total amount to 1000 ml. To this citrus-flavored beverage, p-cresol adjusted to a concentration of 1% by mass with 95% ethanol was added to 50 ppb in the citrus-flavored beverage. To this p-cresol-containing citrus-flavored beverage, 1-oxacycloheptadecan-7-en-2-one was added at the concentrations presented in Table 1 to confirm the p-cresol odor intensity (masking effect) and the influence on the citrus flavor of each sample.
For the test, seven skilled panelists were selected to perform sensory evaluation. The p-cresol odor intensity of the p-cresol-containing citrus-flavored beverage without added l-oxacycloheptadecan-7-en-2-one was determined as “Rating: 4,” and the p-cresol odor intensity of the p-cresol-free citrus-flavored beverage was determined as “Rating: 0,” and the p-cresol odor intensity (masking effect) of each sample was relatively evaluated according to the following evaluation criteria.
In addition, the influence of the citrus-flavored beverage on the citrus flavor was evaluated absolutely according to the following evaluation criteria for the presence or absence of off- flavor other than p-cresol odor and citrus flavor (Off-Flavor Intensity).
The results are as in Table 1, presenting the average score of the evaluation results for each panelist.

[2] = Sensory evaluation of p-cresol odor masking in p-cresol-containing citrus-flavored confectionery (tablet); details: for p-Cresol Odor Intensity: tablet with 200 ppb p-cresol, average score of 6 panelists, scale 0-4; for concentration at which the compound masks the p-cresol odor and does not affect the citrus flavor, lower limit / concentration at which the compound masks the p-cresol odor and does not affect the citrus flavor, upper limit: citrus-flavored confectionery (tablet) with 200 ppb p-cresol
Method: Lemon cold-pressed oil was added to the tablet having the composition presented in Table A at a concentration of 1 % by mass, and medium chain fatty acid triglycerides (MCT) was used to adjust p-cresol to a concentration of 0.1%, which was further added so as to reach 200 ppb in the citrus flavored confectionery. To this p-cresol-containing citrus-flavored confectionery, 1-oxacycloheptadecan-7-en-2-one was added at the concentrations presented in Table 12, and then tableting was performed to confirm the p-cresol odor intensity (masking effect) and the influence on the citrus flavor of each sample.
Six skilled panelists were selected to perform the same sensory evaluation as in Example 1. The results are as in Table 12, presenting the average score of the evaluation results for each panelist.

[3] = Sensory evaluation of p-cresol odor masking in p-cresol-containing grated raw ginger; details: for p-Cresol Odor Intensity: grated ginger with 600 ppb p-cresol, average score of 9 panelists, scale 0-4
Method: To commercially available grated raw ginger, p-cresol adjusted to a concentration of 0.1% with 95% ethanol was added to a concentration of 600 ppb in the ginger. To this p-cresol-containing ginger, 1-oxacycloheptadecan-8-en-2-one was added at the concentrations presented in Table 16 to confirm the p-cresol odor intensity (masking effect) and the influence on the ginger flavor of each sample.
Nine skilled panelists were selected to perform the same sensory evaluation as in Example 1. The results are as in Table 16, presenting the average score of the evaluation results for each panelist.

[4] = Sensory evaluation of p-cresol odor masking in p-cresol-containing lemon dressing; details: lemon dressing with 500 ppb p-cresol; for p-Cresol Odor Intensity: average score of 9 panelists, scale 0-4
Method: To a commercially available lemon dressing, p-cresol adjusted to a concentration of 0.1% with 95% ethanol was added to 500 ppb in the lemon dressing. To this p-cresol-containing lemon dressing, l-oxacycloheptadecan-8-en-2-one was added at the concentrations presented in Table 18 to confirm the p-cresol odor intensity (masking effect) and the influence on the citrus flavor of each sample.
Nine skilled panelists were selected to perform the same sensory evaluation as in Example 1. The results are as in Table 18, presenting the average score of the evaluation results for each panelist.

[5] = grated raw ginger with 600 ppb p-cresol

Row | Compound | effect of suppressing the response of OR9Q2 to p-cresol (olfactory receptor OR9Q2) | p-Cresol Odor Intensity ([1]; 0.01 ppt added) | p-Cresol Odor Intensity ([1]; 0.1 ppt added) | p-Cresol Odor Intensity ([1]; 1 ppb added) | p-Cresol Odor Intensity ([1]; 1 ppt added) | p-Cresol Odor Intensity ([1]; 10 ppb added) | p-Cresol Odor Intensity ([1]; 10 ppt added) | p-Cresol Odor Intensity ([1]; 100 ppb added) | p-Cresol Odor Intensity ([1]; 100 ppt added) | concentration at which the compound masks the p-cresol odor and does not affect the citrus flavor, lower limit [1] | concentration at which the compound masks the p-cresol odor and does not affect the citrus flavor, upper limit [1] | p-Cresol Odor Intensity ([2]; 4 ppb added) | p-Cresol Odor Intensity ([2]; 40 ppb added) | p-Cresol Odor Intensity ([2]; 40 ppt added) | p-Cresol Odor Intensity ([2]; 400 ppb added) | p-Cresol Odor Intensity ([2]; 400 ppt added) | concentration at which the compound masks the p-cresol odor and does not affect the citrus flavor, lower limit [2] | concentration at which the compound masks the p-cresol odor and does not affect the citrus flavor, upper limit [2] | other results
1 | ambrettolide | suppressing the response of OR9Q2 to p-cresol in a concentration-dependent manner |  |  |  |  |  |  |  |  |  |  |  |  |  |  |  |  |  | 
2 | O=C1CCCCCCC/C=C\CCCCCCC1 [Civetone, civetone] | suppressing the response of OR9Q2 to p-cresol in a concentration-dependent manner | 2.7 points | 2.3 points | 1.0 points | 1.9 points | 0.9 points | 1.6 points | 0.4 points | 1.1 points | ≥ 0.01 ppt | ≤ 1 ppb |  |  |  |  |  |  |  | p-Cresol Odor Intensity ([1]; 0.001 ppt added): 3.7 points
3 | O=C1CCCCCC=CCCCCCCCCO1 [1-Oxacycloheptadecan-8-En-2-One, 1-oxacycloheptadecan-8-en-2-one] |  | 3.6 points | 2.9 points | 1.1 points | 2.6 points | 0.7 points | 1.9 points | 0.4 points | 1.4 points | ≥ 0.1 ppt | ≤ 1 ppb | 2.5 points | 1.8 points | 3.3 points | 1.7 points | 3.2 points | ≥ 4 ppb | ≤ 400 ppb | p-Cresol Odor Intensity ([3]; 1 ppb added): 1.7 points; p-Cresol Odor Intensity ([3]; 1 ppt added): 3.2 points; p-Cresol Odor Intensity ([3]; 10 ppb added): 1.4 points; p-Cresol Odor Intensity ([3]; 10 ppt added): 2.4 points; p-Cresol Odor Intensity ([3]; 100 ppt added): 2.3 points; concentration at which the compound masks the p-cresol odor and does not affect the ginger flavor, lower limit [3, 5]: ≥ 10 ppt; concentration at which the compound masks the p-cresol odor and does not affect the ginger flavor, upper limit [3, 5]: ≤ 1 ppb; p-Cresol Odor Intensity ([4]; 1 ppb added): 1.1 points; p-Cresol Odor Intensity ([4]; 1 ppt added): 2.9 points; p-Cresol Odor Intensity ([4]; 10 ppb added): 1.0 points; p-Cresol Odor Intensity ([4]; 10 ppt added): 2.2 points; p-Cresol Odor Intensity ([4]; 100 ppt added): 1.6 points; concentration at which the compound masks the p-cresol odor and does not affect the citrus flavor, lower limit [4]: ≥ 1 ppt; concentration at which the compound masks the p-cresol odor and does not affect the citrus flavor, upper limit [4]: ≤ 10 ppb
4 | O=C1CCCCC=CCCCCCCCCCO1 [1-Oxacycloheptadecan-7-En-2-One, 1-oxacycloheptadecan-7-en-2-one] |  | 3.7 points | 2.7 points | 1.3 points | 2.4 points | 0.9 points | 2.0 points | 0.7 points | 1.7 points | ≥ 0.1 ppt | ≤ 1 ppb | 2.5 points | 2.0 points | 3.2 points | 1.3 points | 2.7 points | ≥ 400 ppt | ≤ 400 ppb | 
